Converted amounts (≈) assume the structure as drawn. The source made the active and inactive calls. The calls are words filed in the database; no cut-off is given here.
What was measured:
Enterococcus [1] = assay: Potency index, ratio of Vancomycin MIC to test compound MIC for antibacterial activity against Vancomycin-resistant Enterococci ATCC 51575; format: functional
Staphylococcus aureus [2] = assay: Antibacterial activity against Vancomycin-resistant Staphylococcus aureus 4 assessed as inhibition of bacterial growth incubated for 18 to 24 hrs by CLSI microbroth dilution method; format: functional; settings: time 18-24 hrs
[3] = Induction of hemolysis in human erythrocytes incubated for 1 hr by microtiter plater reader analysis; format: toxicity, cell-based, Erythrocyte
Enterococcus [4] = assay: Antibacterial activity against Vancomycin-resistant Enterococci NR30909 assessed as inhibition of bacterial growth incubated for 18 to 24 hrs by CLSI microbroth dilution method; format: functional; settings: time 18-24 hrs
Staphylococcus aureus [5] = assay: Potency index, ratio of Vancomycin MIC to test compound MIC for antibacterial activity against Methicillin-resistant Staphylococcus aureus ATCC 33591; format: functional
Enterococcus [6] = assay: Antibacterial activity against Vancomycin-resistant Enterococci NR30903 assessed as inhibition of bacterial growth incubated for 18 to 24 hrs by CLSI microbroth dilution method; format: functional; settings: time 18-24 hrs
Staphylococcus aureus [7] = assay: Antibacterial activity against Vancomycin-resistant Staphylococcus aureus 12 assessed as inhibition of bacterial growth incubated for 18 to 24 hrs by CLSI microbroth dilution method; format: functional; settings: time 18-24 hrs
Enterococcus [8] = assay: Antibacterial activity against Vancomycin-resistant Enterococci ATCC 51575 assessed as inhibition of bacterial growth incubated for 18 to 24 hrs by CLSI microbroth dilution method; format: functional; settings: time 18-24 hrs
Staphylococcus aureus [9] = assay: Antibacterial activity against Methicillin-resistant Staphylococcus aureus ATCC 33591 assessed as inhibition of bacterial growth incubated for 18 to 24 hrs by CLSI microbroth dilution method; format: functional; settings: time 18-24 hrs
Enterococcus [10] = assay: Antibacterial activity against Vancomycin-resistant Enterococci ATCC 51559 assessed as inhibition of bacterial growth incubated for 18 to 24 hrs by CLSI microbroth dilution method; format: functional; settings: time 18-24 hrs
Staphylococcus aureus [11] = assay: Potency index, ratio of Vancomycin MIC to test compound MIC for antibacterial activity against Vancomycin-resistant Staphylococcus aureus 1; format: functional
Enterococcus [12] = assay: Potency index, ratio of Vancomycin MIC to test compound MIC for antibacterial activity against Vancomycin-resistant Enterococci NR30903; format: functional, NR 30903
Enterococcus [13] = assay: Potency index, ratio of Vancomycin MIC to test compound MIC for antibacterial activity against Vancomycin-resistant Enterococci ATCC 51559; format: functional
Staphylococcus aureus [14] = assay: Potency index, ratio of Vancomycin MIC to test compound MIC for antibacterial activity against Vancomycin-resistant Staphylococcus aureus 4; format: functional
Staphylococcus aureus [15] = assay: Potency index, ratio of Vancomycin MIC to test compound MIC for antibacterial activity against Vancomycin-resistant Staphylococcus aureus 12; format: functional
Staphylococcus aureus [16] = assay: Antibacterial activity against Vancomycin-resistant Staphylococcus aureus 1 assessed as inhibition of bacterial growth incubated for 18 to 24 hrs by CLSI microbroth dilution method; format: functional; settings: time 18-24 hrs
[17] = Induction of hemolysis in human erythrocytes at 250 uM incubated for 1 hr by microtiter plater reader analysis; format: toxicity, cell-based, Erythrocyte; settings: read-out: Activity
Enterococcus [18] = assay: Potency index, ratio of Vancomycin MIC to test compound MIC for antibacterial activity against Vancomycin-resistant Enterococci NR30909; format: functional, NR 30909
Cell membrane [19] = assay: Induction of cytoplasmic membrane depolarization in Bacillus subtilis assessed as increase in fluorescence intensity at 10 uM measured for 35 to 40 mins by DiSC3(5) dye based fluorescence analysis; format: subcellular; settings: time 35-40 min
Staphylococcus aureus [20] = assay: Antibiofilm activity against Methicillin-resistant Staphylococcus aureus ATCC 33591 assessed as bacterial biofilm thickness at 20 uM incubated for 24 hrs by confocal laser scanning microscopy (reference value: 8 micrometer); format: functional
Cell membrane [21] = assay: Induction of cytoplasmic membrane depolarization in Methicillin-resistant Staphylococcus aureus ATCC 33591 assessed as increase in fluorescence intensity at 10 uM measured for 35 to 40 mins by DiSC3(5) dye based fluorescence analysis; format: subcellular; settings: time 35-40 min
[22] = molecular target: T1, Septum site-determining protein MinD (Bacillus subtilis (strain 168)) (UniProt Q01464); assay: Delocalization of GFP tagged-MinD in Bacillus subtilis 168 at PEC incubated for 15 mins by fluorescence microscopy
T1 sequence (whole entry): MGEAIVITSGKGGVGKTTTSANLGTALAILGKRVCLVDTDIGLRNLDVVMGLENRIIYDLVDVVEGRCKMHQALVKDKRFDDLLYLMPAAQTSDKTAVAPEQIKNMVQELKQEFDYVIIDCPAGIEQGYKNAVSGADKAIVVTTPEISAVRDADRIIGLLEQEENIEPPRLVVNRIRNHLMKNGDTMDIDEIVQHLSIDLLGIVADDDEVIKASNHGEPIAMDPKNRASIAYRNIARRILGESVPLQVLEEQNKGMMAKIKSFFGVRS

Bacillus subtilis [23] = assay: Inhibition of cell wall biosynthesis in Bacillus subtilis 168 assessed as bubble-like formation on bacterial cell surface at PEC incubated for 15 mins by light microscopic analysis; format: functional, organism-based
Staphylococcus aureus [24] = assay: Antibacterial activity against Methicillin-resistant Staphylococcus aureus ATCC 33591 assessed as log reduction in bacterial colonies at 10XMIC incubated for 1 hr in broth solution followed by plating on nutrient agar plate; format: functional
Staphylococcus aureus [25] = assay: Antibacterial activity against Methicillin-resistant Staphylococcus aureus ATCC 33591 assessed as inhibition of bacterial growth preincubated compound with teichoic-acid for 1 hr followed by incubation with bacterial culture for 18 to 24 hrs by CLSI microbroth dilution method; format: functional; settings: time 19-25 hrs
Staphylococcus aureus [26] = assay: Antibacterial activity against Methicillin-resistant Staphylococcus aureus ATCC 33591 persister cells assessed as reduction in bacterial colonies at 40 uM incubated for 24 hrs in broth solution followed by incubation on agar plate for 48 hrs by spot plating method; format: functional, organism-based; settings: time 72.0 hrs
Cell membrane [27] = assay: Induction of cytoplasmic membrane depolarization in Vancomycin-resistant Enterococci assessed as increase in fluorescence intensity at 10 uM measured for 35 to 40 mins by DiSC3(5) dye based fluorescence analysis; format: subcellular; settings: Enterococcus, time 35-40 min
Staphylococcus aureus [28] = assay: Ratio of MIC for antibacterial activity against Methicillin-resistant Staphylococcus aureus ATCC 33591 in presence of N,N'-diacetyl-L-Lys-D-Ala-D-Ala to MIC for antibacterial activity against Methicillin-resistant Staphylococcus aureus ATCC 33591; format: functional
Staphylococcus aureus [29] = assay: Bactericidal activity against methicillin-resistant Staphylococcus aureus ATCC 33591 assessed as reduction in bacterial colonies at MIC to 8XMIC incubated for 6 hrs in broth solution followed by culturing for 24 hrs on agar plate by spot plating method; format: functional, organism-based; settings: time 30.0 hrs
Staphylococcus aureus [30] = assay: Antibacterial activity against Methicillin-resistant Staphylococcus aureus ATCC 33591 assessed as time duration of post-antibiotic effect for suppression of bacterial growth at 10XMIC incubated for 1 hr in broth solution followed by washing for drug removal and subsequent plating on nutrient agar plate; format: functional
Staphylococcus aureus [31] = assay: Antibacterial activity against Methicillin-resistant Staphylococcus aureus ATCC 33591 assessed as inhibition of bacterial growth preincubated compound with N,N'-diacetyl-L-Lys-D-Ala-D-Ala for 10 mins followed by incubation with bacterial culture for 18 to 24 hrs by CLSI microbroth dilution method; format: functional; settings: time 1090-1450 min
Staphylococcus aureus [32] = assay: Antibiofilm activity against Methicillin-resistant Staphylococcus aureus ATCC 33591 assessed as log reduction in bacterial viability within the biofilms at 20 uM incubated for 24 hrs in broth solution followed by culturing on agar plate for 24 hrs by spot plating method; format: functional; settings: time 48 hrs
Bacillus subtilis [33] = assay: Antibacterial activity against Bacillus subtilis 168 assessed as concentration that requires for bacterial growth retardation measured for every 30 mins; format: functional
Staphylococcus aureus [34] = assay: Ratio of MIC for antibacterial activity against Methicillin-resistant Staphylococcus aureus ATCC 33591 measured after 27 passages to MIC for antibacterial activity against Methicillin-resistant Staphylococcus aureus ATCC 33591 measured after 18 to 24 hrs incubation; format: functional

With `CCCCCCNC(=O)C[N+](C)(C)CCCNC(=O)c1ccc(CN[C@@]2(C)C[C@H](O[C@H]3[C@H](Oc4c5cc6cc4Oc4ccc(cc4Cl)[C@@H](O)[C@@H](NC(=O)[C@@H](CC(C)C)NC)C(=O)N[C@@H](CC(N)=O)C(=O)N[C@H]6C(=O)N[C@H]4C(=O)N[C@H](C(=O)N[C@H](C(=O)O)c6cc(O)cc(O)c6-c6cc4ccc6O)[C@H](O)c4ccc(c(Cl)c4)O5)O[C@H](CO)[C@@H](O)[C@@H]3O)O[C@@H](C)[C@H]2O)cc1` the Ratio (Enterococcus [1]) was 10, the MIC (Staphylococcus aureus [2]) was 29.8 µM and the HC50 at 1 h [3] was > 250 µM. The MIC (Enterococcus [4]) was 14.9 µM, the Ratio (Staphylococcus aureus [5]) was 2 and the MIC (Enterococcus [6]) was 7.4 µM. The MIC (Staphylococcus aureus [7]) was 7.4 µM, the MIC (Enterococcus [8]) was > 30 µM and the MIC (Staphylococcus aureus [9]) was 0.4 µM. For the same compound, the MIC (Enterococcus [10]) was > 30 µM, the Ratio (Staphylococcus aureus [11]) was 10 and the Ratio (Enterococcus [12]) was 10. It also gave a Ratio (Enterococcus [13]) of 10, a Ratio (Staphylococcus aureus [14]) of 10 and a Ratio (Staphylococcus aureus [15]) of 10. The MIC (Staphylococcus aureus [16]) was 14.9 µM, the hemolysis at 1 h, 250 µM [17] was 1% and the Ratio (Enterococcus [18]) was 10.

For `CN[C@H](CC(C)C)C(=O)N[C@H]1C(=O)N[C@@H](CC(N)=O)C(=O)N[C@H]2C(=O)N[C@H]3C(=O)N[C@H](C(=O)N[C@H](C(=O)O)c4cc(O)cc(O)c4-c4cc3ccc4O)[C@H](O)c3ccc(c(Cl)c3)Oc3cc2cc(c3O[C@@H]2O[C@H](CO)[C@@H](O)[C@H](O)[C@H]2O[C@H]2C[C@](C)(N)[C@H](O)[C@H](C)O2)Oc2ccc(cc2Cl)[C@H]1O` [VANCOMYCIN], the Activity (Cell membrane [19]) was “inactive”, the MIC (Staphylococcus aureus [2]) was 346 µM (≈ 501 µg/mL) and the Activity (Staphylococcus aureus [20]) was 7 um. For the same compound, the Activity (Cell membrane [21]) was “inactive”, the Activity [22] was “inactive” and the inhibition (Bacillus subtilis [23]) was “Active”. It also gave an MIC (Enterococcus [4]) of 346 µM (≈ 501 µg/mL), an MIC (Enterococcus [6]) of 692 µM (≈ 1000 µg/mL) and an MIC (Staphylococcus aureus [7]) of 346 µM (≈ 501 µg/mL). For the same compound, the Activity (Staphylococcus aureus [24]) was 0.5 log10CFU/ml, the MIC (Enterococcus [8]) was 346 µM (≈ 501 µg/mL) and the MIC (Staphylococcus aureus [9]) was 0.6 µM (≈ 0.87 µg/mL). For the same compound, the MIC (Enterococcus [10]) was 1380 µM (≈ 2010 µg/mL), the MIC (Staphylococcus aureus [25]) was 0.6 µM (≈ 0.87 µg/mL) and the Activity (Staphylococcus aureus [26]) was “inactive”. The Activity (Cell membrane [27]) was “inactive”, the Ratio (Staphylococcus aureus [28]) was >40 and the Activity (Staphylococcus aureus [29]) was “Active”. For the same compound, the Time (Staphylococcus aureus [30]) was 6 h, the MIC (Staphylococcus aureus [31]) was > 30 µM and the Activity (Staphylococcus aureus [32]) was 0.9 log10CFU/ml. For the same compound, the EC (Bacillus subtilis [33]) was 0.4 µM, the MIC (Staphylococcus aureus [16]) was 346 µM (≈ 501 µg/mL) and the Ratio (Staphylococcus aureus [34]) was 2.

From ChEMBL document CHEMBL5223082, “Alkyl-Aryl-Vancomycins: Multimodal Glycopeptides with Weak Dependence on the Bacterial Metabolic State” (J Med Chem, 2021)
